Reference: patent publication US20140090094A1, “MODULATORS OF SLC22A7” (BAYER INTELLECTUAL PROPERTY GmbH, priority 2011, published 2014)
Several values for one entry are separate records, joined by “and”; a condition that tells them apart may be missing. Equal entries are not always repeated.

Experiments:
OAT2h splice variant = OAT2h splice variant (Homo sapiens, UniProt Q9Y694); conditions: 24 h incubation, 100 μmol/l in uptake buffer
Experimental: (§1) A substrate search by LC-MS difference shading was performed with 293 cells stably transfected to express OAT2 from rat. […] To verify that trigonelline is directly transported by OAT2 and not just increased indirectly, initial rates of uptake (1 min, 37° C.) of trigonelline (10 μmol/l) were determined by LC-MS/MS.
After centrifugation (1 min, 16000×g, 20° C.) of thawed lysates, 100 μl of the supernatant was mixed with either 10 μl unlabeled MPP+ iodide (0.5 ng/μl) or biphenyl-4-carboxylic acid (Sigma-Aldrich) as internal standard. Of this mixture, […] were analyzed by LCMS/MS on a triple quadrupole mass spectrometer (4000 Q TRAP, Applied Biosystems, Darmstadt, Germany). […] For quantification (scan time 150 ms), the optimal collision energy for argon-induced fragmentation in the second quadrupole was determined for each analyte. […] Sample analyte content was calculated from the analyte response ratio and the slope of the calibration curve, obtained by linear regression. With LC-MS quantitation, solute content of cell lysates was determined for 4 conditions (paired dishes, incubation time 1 min): a) transporter expression on, uptake buffer; b) expression off, uptake buffer; c) expression on, substrate in uptake buffer; d) expression off, substrate in uptake buffer. Acute uptake mediated by heterologously expressed carrier was then calculated as (c−a)−(d−b). […]

OAT2r = biological target: T1, OAT2r (Rattus norvegicus, UniProt Q5RLM2); test: 24 h accumulation in lysates of OAT2r-expressing versus control cells (LC-MS/MS); type: cell-based; conditions: 24 h incubation, compound at 100 μmol/l
T1 construct: expressed in transfected cells
T1 sequence (Q5RLM2 1-535): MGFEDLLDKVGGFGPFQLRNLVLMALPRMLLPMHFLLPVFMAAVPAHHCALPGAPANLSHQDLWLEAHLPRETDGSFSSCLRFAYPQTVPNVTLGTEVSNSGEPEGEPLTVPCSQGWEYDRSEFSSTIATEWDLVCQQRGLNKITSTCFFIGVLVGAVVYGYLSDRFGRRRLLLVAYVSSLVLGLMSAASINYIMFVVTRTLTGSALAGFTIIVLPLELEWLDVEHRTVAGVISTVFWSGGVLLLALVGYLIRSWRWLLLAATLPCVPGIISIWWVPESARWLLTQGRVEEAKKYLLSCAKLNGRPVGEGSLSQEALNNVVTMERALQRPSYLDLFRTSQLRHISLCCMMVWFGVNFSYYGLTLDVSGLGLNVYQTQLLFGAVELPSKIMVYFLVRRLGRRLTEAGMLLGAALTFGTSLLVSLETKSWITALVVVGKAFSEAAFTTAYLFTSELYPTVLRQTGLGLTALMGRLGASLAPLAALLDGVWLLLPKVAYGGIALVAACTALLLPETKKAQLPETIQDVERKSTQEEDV
Experimental: as §1
With trigonelline as substrate lead, compounds wholly or partly related in structure were analyzed for transport by OAT2 from rat.
After centrifugation (1 min, 16000×g, 20° C.) of thawed lysates, 100 μl of the supernatant was mixed with either 10 μl unlabeled MPP+ iodide (0.5 ng/μl) or biphenyl-4-carboxylic acid (Sigma-Aldrich) as internal standard. Of this mixture, […] were analyzed by LCMS/MS on a triple quadrupole mass spectrometer (4000 Q TRAP, Applied Biosystems, Darmstadt, Germany). […] Atmospheric pressure ionization with positive or negative electrospray was used. For quantification (scan time 150 ms), the optimal collision energy for argon-induced fragmentation in the second quadrupole was determined for each analyte. […] Linear calibration curves were constructed from at least six standards which were prepared using control cell lysates as solvent. Sample analyte content was calculated from the analyte response ratio and the slope of the calibration curve, obtained by linear regression. With LC-MS quantitation, solute content of cell lysates was determined for 4 conditions ([…]): a) transporter expression on, uptake buffer; b) expression off, uptake buffer; c) expression on, substrate in uptake buffer; d) expression off, substrate in uptake buffer. Acute uptake mediated by heterologously expressed carrier was then calculated as (c−a)−(d−b). This approach takes into account endogenous solute content and non-specific uptake. Protein was measured by the BCA assay (Pierce) with bovine serum albumin as standard. The protein content of MS samples was estimated from 3 matched cell dishes.

- increase in cell lysates versus control cells (factor f) (OAT2h splice variant): 3.9
- increase in OAT2r cell lysates versus control cells (factor f) (OAT2r): 8.1 and 4.7
Structure (SMILES): C[n+]1cccc(C(=O)[O-])c1 [trigonelline]
